Source: US12522877B2, “Early detection of drug-resistant mycobacterium tuberculosis” (The Translational Genomics Research Institute, priority 2020, dated 2026)

What was measured:
[1] = in vivo; cited from earlier work
[2] = tested on: M. tuberculosis isolates; type: cell-based, Mycobacterium tuberculosis
[3] = tested on: M. tuberculosis isolates; type: cell-based, Mycobacterium tuberculosis; remark: listed apart in the source
[4] = human, in vivo

| SMILES | Phenotypic DST [3] | adverse effect for which the drug was stopped [4] | other results |
| --- | --- | --- | --- |
| COc1nc2ccc(Br)cc2cc1[C@@H](c1ccccc1)[C@@](O)(CCN(C)C)c1cccc2ccccc12 [bedaquiline] |  |  | half-life [1]: 5.5 months; acquired resistance to bedaquiline [2]: 39% |
| CC1COc2c(N3CCN(C)CC3)c(F)cc3c(=O)c(C(=O)O)cn1c23 (stereo not drawn) [Ofloxacin] | S and R |  |  |
| NNC(=O)c1ccncc1 [Isoniazid] |  | vision problems |  |
| NC(=O)c1cnccn1 [Pyrazinamide] |  | persistent arthralgias and changes in vision |  |
| CC[C@@H](CO)NCCN[C@@H](CC)CO [ethambutol] |  | persistent arthralgias and changes in vision |  |
| NCC[C@H](O)C(=O)N[C@@H]1C[C@H](N)[C@@H](O[C@H]2O[C@H](CN)[C@@H](O)[C@H](O)[C@H]2O)[C@H](O)[C@H]1O[C@H]1O[C@H](CO)[C@@H](O)[C@H](N)[C@H]1O [Amikacin] | S |  | Phenotypic susceptibility [3]: phenotypically susceptible; Routine phenotypic DST [3]: susceptible |
